Data from the NIST ThermoML archive (doi:10.1021/je8008039).
± gives the expanded uncertainty stated by the source.

Conditions: Crystal; visual observation

Normal melting temperature: 155 ± 1.1 °C
SMILES: COc1ccc2cc([C@H](C)C(=O)O)ccc2c1 [(S)-(+)-naproxen]
